Read-outs that look alike come from different tables or passages of the source.
Columns and labels:
FKBP52 (FK1 domain) = target: T1, FKBP52 (FK1 domain) (Homo sapiens, UniProt Q02790); experiment: Fluorescence polarization assay, binding affinity to FKBP52 (FK1 domain); conditions: fluorescence polarization assay using tracer 2b, read-out: FKBP52FK1 IC50
T1 sequence (Q02790 50-138 limits assumed): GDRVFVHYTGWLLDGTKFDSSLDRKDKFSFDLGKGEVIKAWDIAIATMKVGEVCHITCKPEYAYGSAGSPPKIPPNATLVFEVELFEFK
Experimental: (§1) The binding affinites for FKBPs were determined as described in Kozany et al., ChemBioChem 10, 8, 2009, 1402-1410 using tracer 2b.
(§2) Table 1: Chemical compounds according to formula (I) used in fluorescence polarization assay: Binding affinity to FKBP51 (FK1 domain) and FKBP52 (FK1 domain)

FKBP51 (FK1 domain) = target: T2, FKBP51 (FK1 domain) (Homo sapiens, UniProt Q13451); experiment: Fluorescence polarization assay, binding affinity to FKBP51 (FK1 domain); conditions: fluorescence polarization assay using tracer 2b, read-out: FKBP51FK1 IC50
T2 sequence (Q13451 42-130 limits assumed): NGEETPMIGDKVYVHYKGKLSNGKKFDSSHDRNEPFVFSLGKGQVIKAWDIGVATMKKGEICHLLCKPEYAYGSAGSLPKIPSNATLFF
Experimental: as §1, §2

| SMILES | IC50 (FKBP52 (FK1 domain)) [µM] | IC50 (FKBP51 (FK1 domain)) [µM] | IC50 (FKBP52 (FK1 domain); listed as 1*) [µM] | IC50 (FKBP51 (FK1 domain); listed as 1*) [µM] | IC50 (FKBP52 (FK1 domain); listed as 3*) [µM] |
| --- | --- | --- | --- | --- | --- |
| COc1ccc(CC[C@@H](OC(=O)[C@@H]2CCCCN2C(=O)C(=O)C2(O)CCCCC2C)c2cccc(OCC(=O)O)c2)cc1OC (stereo in doubt) [Compound 6, 2-(3-((R)-3-(3,4-dimethoxyphenyl)-1-((S)-1-(2-((1R,2R)-1-hydroxy-2-methylcyclohexyl)-2-oxoacetyl)piperidine-2-carbonyloxy)propyl)phenoxy) acetic acid] | 2.64 ± 0.19 | 4.13 ± 0.2 |  |  |  |
| CCC1CCCCC1(O)C(=O)C(=O)N1CCCC[C@H]1C(=O)O[C@H](CCc1ccc(OC)c(OC)c1)c1cccc(OCC(=O)O)c1 (stereo in doubt) [Compound 7, 2-(3-((R)-3-(3,4-dimethoxyphenyl)-1-((S)-1-(2-((1R,2R)-2-ethyl-1-hydroxycyclohexyl)-2-oxoacetyl)piperidine-2-carbonyloxy)propyl)phenoxy) acetic acid] | 9.77 ± 1.48 |  |  |  |  |
| COc1ccc(CC[C@@H](OC(=O)[C@@H]2CCCCN2C(=O)C(=O)[C@]2(O)CCCC[C@H]2C)c2cccc(OCC(=O)O)c2)cc1OC [Compound 1, 2-(3-((R)-3-(3,4-dimethoxyphenyl)-1-((S)-1-(2-((1S,2R)-1-hydroxy-2-methylcyclohexyl)-2-oxoacetyl)piperidine-2-carbonyloxy)propyl)phenoxy) acetic acid] |  |  | 2.13 ± 0.21 | 4.2 ± 0.11 |  |
| COc1ccc(CC[C@@H](OC(=O)[C@@H]2CCCCN2C(=O)C(=O)[C@]2(O)CCCC[C@H]2C)c2cccc(OCC(=O)O)c2)cc1OC [Compound 1a] | 2.44 ± 0.17 | 4.27 ± 0.19 |  |  |  |
| COc1ccc(CC[C@@H](OC(=O)[C@@H]2CCCCN2C(=O)C(=O)[C@@]2(O)CCCC[C@@H]2C)c2cccc(OCC(=O)O)c2)cc1OC [Compound 1b] | 2.88 ± 0.21 | 4.54 ± 0.24 |  |  |  |
| COc1ccc(CC[C@@H](OC(=O)[C@@H]2CCCCN2C(=O)C(=O)[C@]2(O)CCCC[C@H]2C)c2cccc(OCCN3CCOCC3)c2)cc1OC [Compound 2, (S)—((R)-3-(3,4-dimethoxyphenyl)-1-(3-(2-morpholinoethoxy)phenyl)propyl) 1-(2-((1S,2R)-1-hydroxy-2-methylcyclohexyl)-2-oxoacetyl)piperidine-2-carboxylate] | 0.89 ± 0.06 | 2.02 ± 0.14 |  |  |  |
| CC[C@@H]1CCCC[C@@]1(O)C(=O)C(=O)N1CCCC[C@H]1C(=O)O[C@H](CCc1ccc(OC)c(OC)c1)c1cccc(OCC(=O)O)c1 [Compound 3, 2-(3-((R)-3-(3,4-dimethoxyphenyl)-1-((S)-1-(2-((1S,2R)-2-ethyl-1-hydroxy-cyclohexyl)-2-oxoacetyl)piperidine-2-carbonyloxy)propyl)phenoxy) acetic acid] |  |  |  |  | 9.5 ± 1.3 |
| CC[C@@H]1CCCC[C@@]1(O)C(=O)C(=O)N1CCCC[C@H]1C(=O)O[C@H](CCc1ccc(OC)c(OC)c1)c1cccc(OCC(=O)O)c1 [Compound 3a] | 4.2 ± 0.3 |  |  |  |  |
| CC[C@H]1CCCC[C@]1(O)C(=O)C(=O)N1CCCC[C@H]1C(=O)O[C@H](CCc1ccc(OC)c(OC)c1)c1cccc(OCC(=O)O)c1 [Compound 3b] | 3.5 ± 0.6 |  |  |  |  |
| CC[C@@H]1CCCC[C@@]1(O)C(=O)C(=O)N1CCCC[C@H]1C(=O)O[C@H](CCc1ccc(OC)c(OC)c1)c1cccc(OCCN2CCOCC2)c1 [Compound 4, (S)—((R)-3-(3,4-dimethoxyphenyl)-1-(3-(2-morpholinoethoxy)phenyl)propyl)1-(2-((1S,2R)-2-ethyl-1-hydroxycyclohexyl)-2-oxoacetyl)piperidine-2-carboxylate] | 3.72 ± 1.02 | 9.66 ± 0.83 |  |  |  |
| COc1ccc(CC[C@@H](OC(=O)[C@@H]2CCCCN2C(=O)C(=O)[C@]2(O)CCCC[C@H]2CO)c2cccc(OCC(=O)O)c2)cc1OC [Compound 5, 2-(3-((R)-3-(3,4-dimethoxyphenyl)-1-((S)-1-(2-((1S,2S)-1-hydroxy-2-(hydroxylmethyl)cyclohexyl)-2-oxoacetyl)piperidine-2-carbonyloxy)propyl)phenoxy)acetic acid] | 6.2 ± 0.5 | 8.5 ± 0.6 |  |  |  |
| COc1ccc(CC[C@@H](OC(=O)[C@@H]2CCCCN2C(=O)C(=O)[C@]2(O)CCCC[C@@H]2C)c2cccc(OCC(=O)O)c2)cc1OC [Compound 6a] | 2.2 ± 0.13 | 4.18 ± 0.15 |  |  |  |
| COc1ccc(CC[C@@H](OC(=O)[C@@H]2CCCCN2C(=O)C(=O)[C@@]2(O)CCCC[C@H]2C)c2cccc(OCC(=O)O)c2)cc1OC [Compound 6b] | 2.64 ± 0.25 | 4.96 ± 0.25 |  |  |  |
| COc1ccc(CC[C@@H](OC(=O)[C@@H]2CCCCN2C(=O)C(=O)C2CCCCC2)c2cccc(OCC(=O)O)c2)cc1OC [Compound 8] | 9.53 ± 1.35 | 15.2 ± 1.04 |  |  |  |
| COc1ccc(CC[C@@H](OC(=O)[C@@H]2CCCCN2C(=O)C(=O)c2cc(OC)c(OC)c(OC)c2)c2cccc(OCC(=O)O)c2)cc1OC [Compound 9, 2-(3-((R)-3-(3,4-dimethoxyphenyl)-1-((S)-1-(2-oxo-2-(3,4,5-tri-methoxyphenyl)acetyl)piperidine-2-carbonyloxy)propyl)phenoxy)acetic acid] | 11.6 ± 1.6 | 19.3 ± 6.6 |  |  |  |
| COc1ccc(CC[C@@H](OC(=O)[C@@H]2CCCCN2C(=O)C(=O)c2ccc(Oc3ccccc3)cc2)c2cccc(OCC(=O)O)c2)cc1OC [Compound 10, 2-(3-((R)-3-(3,4-dimethoxyphenyl)-1-((S)-1-(2-oxo-2-(4-phenoxy-phenyl)acetyl)piperidine-2-carbonyloxy)propyl)phenoxy)acetic acid] | 1.71 ± 0.35 | 2.83 ± 0.21 |  |  |  |

Other lines, results leading:

| IC50 (FKBP52 (FK1 domain)) [µM] | IC50 (FKBP51 (FK1 domain)) [µM] | IC50 (FKBP52 (FK1 domain); listed as 1*) [µM] | IC50 (FKBP51 (FK1 domain); listed as 1*) [µM] | IC50 (FKBP52 (FK1 domain); listed as 3*) [µM] | SMILES |
| --- | --- | --- | --- | --- | --- |
| 5.6 ± 1.1 | 4.1 ± 0.8 |  |  |  | COc1ccc(CC[C@@H](OC(=O)[C@@H]2CCCCN2C(=O)C(=O)c2cc(Cl)cc(Cl)c2)c2cccc(OCC(=O)O)c2)cc1OC [Compound 11, 2-(3-((R)-3-(3,4-dimethoxyphenyl)-1-((S)-1-(2-oxo-2-(3,5-dichloro-phenyl)acetyl)piperidine-2-carbonyloxy)propyl)phenoxy)acetic acid] |
| > 100 | > 100 |  |  |  | COc1ccc(CCOC(=O)C2CCCCN2C(=O)C(=O)[C@]2(O)CCCC[C@H]2C)cc1OC (stereo partly drawn) [Reference Example 1*, 3,4-dimethoxyphenethyl 1-(2-((1S,2R)-1-hydroxy-2-methyl-cyclohexyl)-2-oxoacetyl)piperidine-2-carboxylate, reference compound] |
| 11.7 ± 6.4 | 29.4 ± 8.5 |  |  |  | COc1ccc(OCCOC(=O)C2CCCCN2C(=O)C(=O)[C@]2(O)CCCC[C@H]2C)cc1OC (stereo partly drawn) [Reference Example 2*, 2-(3,4-dimethoxyphenoxy)ethyl 1-(2-((1S,2R)-1-hydroxy-2-methyl-cyclohexyl)-2-oxoacetyl)piperidine-2-carboxylate, reference compound] |
| > 100 | > 100 |  |  |  | CC[C@@H]1CCCC[C@@]1(O)C(=O)C(=O)N1CCCCC1C(=O)OCCOc1ccc(OC)c(OC)c1 (stereo partly drawn) [Reference Example 3*, 2-(3,4-dimethoxyphenoxy)ethyl 1-(2-((1S,2R)-2-ethyl-1-hydroxy-cyclohexyl)-2-oxoacetyl) piperidine-2-carboxylate, reference compound] |
| 41.6 ± 15.8 | 51.5 ± 31.9 |  |  |  | CCC(C)(C)C(=O)C(=O)N1CCC[C@H]1C(=O)O[C@H](CCc1ccc(OC)c(OC)c1)c1cccc(OCC(=O)O)c1 [Reference Example 4, 2-(3-((R)-3-(3,4-dimethoxyphenyl)-1-((S)-1-(3,3-dimethyl-2-oxopentanoyl)-pyrrolidine-2-carbonyloxy)propyl)phenoxy)acetic acid, reference compound] |
| 49.2 ± 24.6 | 32.7 ± 12.3 |  |  |  | CCC(C)(C)C(=O)C(=O)N1CC=CC[C@H]1C(=O)O[C@H](CCc1ccc(OC)c(OC)c1)c1cccc(OCC(=O)O)c1 [Reference Example 5, 2-(3-((R)-3-(3,4-dimethoxyphenyl)-1-((S)-1-(3,3-dimethyl-2-oxopentanoyl)-1,2,3,6-tetrahydropyridine-2-carbonyloxy)propyl)phenoxy)acetic acid, reference compound] |
| 46.2 ± 18.8 | 38.4 ± 16.5 |  |  |  | COc1ccc(CC[C@@H](OC(=O)[C@@H]2CCCCN2C(=O)C(=O)C(C)(C)C)c2cccc(OCC(=O)O)c2)cc1OC [Reference Example 6, reference compound] |
| > 100 | > 100 |  |  |  | O=C(C(=O)N1CCCCC1C(=O)OCCCc1ccccc1)c1ccccc1 (stereo not drawn) [Reference Example 7, reference compound] |
| > 100 | 89.5 ± 21.7 |  |  |  | CCC(C)(C)C(=O)C(=O)N1CCCC1C(=O)OC(CCc1ccccc1)c1ccccc1 (stereo not drawn) [Reference Example 8, reference compound] |
| 61.2 ± 23.7 | 55.6 ± 13.1 |  |  |  | CC(C)C(C)(C)C(=O)C(=O)N1CCCC[C@H]1C(=O)O[C@H](CCc1ccccc1)c1ccccc1 [Reference Example 9, reference compound] |
